# Test results as given in patent US9956181B2, “Composition of nanoformulated lycopene and method of using the composition” (priority 2015, dated 2018).
# Test system: genes involved in osteoblast activity, osteoclastogenesis, apoptosis and oxidative stress enzymes
# Test: OVX rat study: qRT-PCR of bone marrow and flushed femur
# Type: in vivo, Wistar rats
# Conditions: for decrease in concentration ratio of RANKL/OPG: P<0.05
# Method: FIG. 10 depicts […] analysis of genes involved in osteoblast activity, osteoclastogenesis, apoptosis and oxidative stress enzymes, in accordance with embodiments of the present invention. Bone marrow (A) was analyzed for relative mRNA abundance of the osteoclastogenesis gene factor of activated T-cells (Nfatc1), while the flushed femur (B-D) was used to examine genes involved in osteoblast activity and function: type 1 collagen (Colla1), osteocalcin (Ocn), alkaline phosphatase (Alp), osteoprotegerin (Opg), and receptor activator for NF-kappa B ligand (Rankl) in sham-operated (SHAM) and ovariectomized (Ovx) rats treated with placebo or lycopene (15, 30 and 45 mg/kg body weight per day) or alendronate (ALN) (2.0 ug/kg body weight per day) for 12 weeks. Bone marrow (F-H) was analyzed for relative mRNA abundance of oxidative enzyme: glutathione peroxidase (GPx), superoxide dismutase (SOD) and catalase (CAT) in sham-operated (SHAM) and ovariectomized (Ovx) rats treated with placebo or lycopene (15, 30 and 45 mg/kg body weight per day) or alendronate (ALN) (2.0 ug/kg body weight per day) for 12 weeks. Bone marrow (I) and the flushed femur (J-L) were analyzed for relative mRNA abundance of apoptotic genes. Genes of interest including, B-cell lymphoma homologous antagonist/killer (Bak1), caspase-3 (Casp3) and -9 (Casp 9) in sham-operated (SHAM) and ovariectomized (Ovx) rats treated with placebo or lycopene (15, 30 and 45 mg/kg body weight per day) or alendronate (ALN) (2.0 ug/kg body weight per day) for 12 weeks. Bars represent the mean±SD for 10 rats in each group.
# A total of 264 Wistar female rats, ˜6 months old, were supplied by the Animal House at King Fahd Medical Research Center (KFMRC), KAU. Rats were housed in individual cages and maintained at 22° C. with a 12-h light/dark cycle. During the study period, rats were given standard rodent chow diet ad libitum (commercial rat cubes containing approximately 18% protein, 3% fat, 77% carbohydrate, and 2% of an inorganic-salt mixture with a vitamin supplement by weight, supplied by Grain Silos and Flour Mills Organization, Jeddah, Saudi Arabia) and water until the onset of intervention. Prior to surgery, rats were anesthetized with ketamine [(10% ketamine hydrochloride (80 mg/kg body weight), Cayman Chemical, Michigan, USA] and xylazine [(2% xylazine hydrochloride, 10 mg/kg body weight), Sigma-Aldrich Co., St. Louis, USA]. A single longitudinal skin incision was made on the dorsal midline at the level of the kidneys and both ovaries were ligated and removed to produce an ovariectomy in all OVX group animals. A SHAM-operated group, acting as a negative control for the effect of ovariectomy on bone parameters, underwent bilateral laparotomy, during which the ovaries were exposed but remained intact. […] The lycopene-supplemented groups were given lycopene (15, 30 and 45 mg/kg body weight per day) dissolved in corn oil by daily intra-gastric administration for the experimental period of 12 weeks. The SHAM, OVX and ALN control groups were given the same volume of corn oil without lycopene treatment. […] A 12-week randomized placebo-controlled study in order to examine the protective effects of lycopene supplementation on bone mass and fragility in OVX rats was concluded. Prior to surgery, body weight and bone mineral density (BMD) were obtained for all animals. Rats were randomized using a computer-generated randomization code into one of six groups: (1) sham-operated (SHAM; n=44); (2) ovariectomized control (OVX; n=44); (3) OVX lycopene-supplemented (15 mg/kg body weight per day) (n=44); (4) OVX lycopene-supplemented (30 mg/kg body weight per day) (n=44); (5) OVX lycopene-supplemented (45 mg/kg body weight per day) (n=44) and (6) OVX alendronate-treated (ALN) [2.0 μg/kg body weight per day subcutaneously (sc)] (n=44). Alendronate is an anti-resorptive agent for the treatment of osteoporosis and was used as a positive therapy control. […]
# [1] = flushed femurs, lycopene treatment
smiles,measurement,setting,value
CC(C)=CCC/C(C)=C/C=C/C(C)=C/C=C/C(C)=C/C=C/C=C(C)/C=C/C=C(C)/C=C/C=C(\C)CCC=C(C)C [lycopene],"Alp, Colla1 and Ocn mRNA","OVX rats, lycopene treatment",enhancing
same,RANKL expression,all three doses of lycopene,down-regulated
same,Bak1 mRNA abundance compared to OVX control,"bone marrow, lycopene treatment",up-regulated
same,OVX-induced increase in Nfatc1 mRNA,"bone marrow, lycopene, 12 weeks, restored to SHAM level",suppressed
same,Casp 9 and Casp 3 gene expression,[1],did not change
same,Colla1 gene expression,[1],remained elevated
same,OPG expression,higher doses of lycopene,decreased
same,decrease in concentration ratio of RANKL/OPG,lycopene 30 mg/kg body weight per day,18.9%
same,decrease in concentration ratio of RANKL/OPG,lycopene 45 mg/kg body weight per day,38.3%
same,"GPX-1, CAT and SOD relative expression","lycopene treatment, to a level higher than SHAM",increased
